Data from patent US10265317B2, “Combination of creatine, an omega-3 fatty acid, and citicoline” (University of Utah Research Foundation, priority 2014, dated 2019).

Tests used:
[1] = system: frontal lobe levels of both phosphocreatine and adenosine triphosphate; settings: chronic oral administration; cited from earlier work
[2] = system: females between 40-60 years of age; assay: Hamilton Anxiety Rating Scale (HAM-A), clinical study; type: in vivo, human; settings: Visit 2, higher score indicates more severe symptoms
Protocol: (§1) Approval for the study was obtained from the University of Utah Institutional Review Board (IRB). Informed consent consisted of written assent from participants. The study was conducted under U.S. Food and Drug Administration (FDA) Investigational New Drug Application #104,586. An external Data Safety and Monitoring Board vested with authority to halt the trial was established, and the study was conducted in accordance of the principles of Good Clinical Practice (GCP).
(§2) Participants were recruited through self-referral and IRB-approved advertising. Consecutive patients who met inclusion criteria were enrolled. Inclusion criteria included the following: females between 40-60 years of age. […]
(§3) At each study visit, the following rating scales were administered: the Hamilton Anxiety Rating Scale (HAM A) (Hamilton, 1969) and the Hamilton Depression Rating Scale (HAM D) (Hamilton, 1960), the California Verbal Learning Test (Delis et al., 1987) and the Rey Osterrieth Figure Test (Bennett-Levy, 1984). Adverse events we recorded at each study visit. […]

[3] = system: females between 40-60 years of age; assay: Hamilton Depression Rating Scale (HAM-D), clinical study; type: in vivo, human; settings: Visit 2, higher score indicates more severe symptoms
Protocol: as §1, §2, §3

C[N+](C)(C)CCOP(=O)(O)OP(=O)([O-])OC[C@H]1O[C@@H](n2ccc(N)nc2=O)[C@H](O)[C@@H]1O [CDP-Choline, cytidine-5′-diphosphocholine]
frontal lobe levels of phosphocreatine and adenosine triphosphate [1]: increase | HAM-A Mean ([2]; 250 mg CDP-Choline): 1.80 | HAM-A Mean ([2]; 500 mg CDP-Choline): 1.35 | HAM-D Mean ([3]; 250 mg CDP-Choline): 1.60 | HAM-D Mean ([3]; 500 mg CDP-Choline): 1.35
